# What was measured:
# Assay type in all cases: ADME, cell membranes
# Conditions in all cases: pH 7.4, 5 h
# [1] = Apparent permeability of the compound across bacterial inner membrane mimic PC-phospholipids in PBS buffer assessed as membrane retention at pH 7.4 incubated for 5 hrs in presence of 1,3-bis(8-carbamimidamidooctyl)-1,3-bis({8-[N'-(cyclopropylmethyl)carbamimidamido]octyl})urea by PAMPA based UV-Vis spectrophotometric analysis
# [2] = Apparent permeability of the compound across bacterial inner membrane mimic PC-phospholipids in PBS buffer assessed as membrane retention at pH 7.4 incubated for 5 hrs by PAMPA based UV-Vis spectrophotometric analysis
# [3] = (§1) Apparent permeability of the compound across bacterial inner membrane mimic pure POPG in PBS buffer assessed as membrane retention at pH 7.4 incubated for 5 hrs by PAMPA based UV-Vis spectrophotometric analysis
# [4] = (§2) Apparent permeability of the compound across bacterial inner membrane mimic POPE/POPG (6:4) in PBS buffer assessed as membrane retention at pH 7.4 incubated for 5 hrs by PAMPA based UV-Vis spectrophotometric analysis
# [5] = (§3) Apparent permeability of the compound across bacterial inner membrane mimic PC-phospholipids in PBS buffer assessed as membrane retention at pH 7.4 incubated for 5 hrs in presence of {8-[N'(cyclopropylmethyl)carbamimidamido]octyl}urea trifluoroacetate salt by PAMPA based UV-Vis spectrophotometric analysis
# [6] = Apparent permeability of the compound across bacterial inner membrane mimic PC-phospholipids in PBS buffer assessed as membrane retention at pH 7.4 incubated for 5 hrs in presence of 1,1-bis({6-[N'-(cyclopropylmethyl)carbamimidamido]hexyl})-3-{8-[N'-(cyclopropylmethyl)carbamimidamido]octyl}-3-octylurea by PAMPA based UV-Vis spectrophotometric analysis
# [7] = as §3, with “1,3-bis(8-aminooctyl)-1,3-bis(8- carbamimidamidooctyl)urea” for “{8-[N'(cyclopropylmethyl)carbamimidamido]octyl}urea”
# [8] = as §3, with “1,3,3-tris(8-carbamimidamidooctyl)-1-{8-[N'-(cyclopropylmethyl)carbamimidamido]octyl}urea” for “{8-[N'(cyclopropylmethyl)carbamimidamido]octyl}urea”
# [9] = as §1, with “hrs in presence of 1,3-bis(8-carbamimidamidooctyl)-1,3-bis({8-[N'-(cyclopropylmethyl)carbamimidamido]octyl})urea” for “hrs”
# [10] = (§4) Apparent permeability of the compound across bacterial inner membrane mimic pure POPG in PBS buffer assessed as membrane retention at pH 7.4 incubated for 5 hrs in presence of {8-[N'(cyclopropylmethyl)carbamimidamido]octyl}urea trifluoroacetate salt by PAMPA based UV-Vis spectrophotometric analysis
# [11] = as §1, with “hrs in presence of 1,1-bis({6-[N'-(cyclopropylmethyl)carbamimidamido]hexyl})-3-{8-[N'-(cyclopropylmethyl)carbamimidamido]octyl}-3-octylurea” for “hrs”
# [12] = as §4, with “1,3-bis(8-aminooctyl)-1,3-bis(8- carbamimidamidooctyl)urea” for “{8-[N'(cyclopropylmethyl)carbamimidamido]octyl}urea”
# [13] = as §4, with “1,3,3-tris(8-carbamimidamidooctyl)-1-{8-[N'-(cyclopropylmethyl)carbamimidamido]octyl}urea” for “{8-[N'(cyclopropylmethyl)carbamimidamido]octyl}urea”
# [14] = as §2, with “hrs in presence of 1,3-bis(8-carbamimidamidooctyl)-1,3-bis({8-[N'-(cyclopropylmethyl)carbamimidamido]octyl})urea” for “hrs”
# [15] = as §3, with “POPE/POPG (6:4)” for “PC-phospholipids”
# [16] = as §2, with “hrs in presence of 1,1-bis({6-[N'-(cyclopropylmethyl)carbamimidamido]hexyl})-3-{8-[N'-(cyclopropylmethyl)carbamimidamido]octyl}-3-octylurea” for “hrs”
# [17] = as §2, with “hrs in presence of 1,3-bis(8-aminooctyl)-1,3-bis(8- carbamimidamidooctyl)urea trifluoroacetate salt” for “hrs”
# [18] = as §2, with “hrs in presence of 1,3,3-tris(8-carbamimidamidooctyl)-1-{8-[N'-(cyclopropylmethyl)carbamimidamido]octyl}urea trifluoroacetate salt” for “hrs”
compound,measurement,setting,value
Cn1c(=O)c2c(ncn2C)n(C)c1=O [CAFFEINE],R%,[1],12.6%
same,R%,[2],3.2%
same,R%,[3],4.5%
same,R%,[4],3.3%
same,R%,[5],12.8%
same,R%,[6],0%
same,R%,[7],15.8%
same,R%,[8],8.1%
same,R%,[9],13.5%
same,R%,[10],13.4%
same,R%,[11],14.7%
same,R%,[12],17.1%
same,R%,[13],14.6%
same,R%,[14],12.6%
same,R%,[15],17.5%
same,R%,[16],16.7%
same,R%,[17],16.5%
same,R%,[18],19%

# From ChEMBL document CHEMBL5154741, “Antibacterial alkylguanidino ureas: Molecular simplification approach, searching for membrane-based MoA” (Eur J Med Chem, 2022)
